In US8242098B2, “Methods of treating hormone-related conditions using thio-oxindole derivatives” (Wyeth LLC, priority 2002, dated 2012):

Key:
[1] = target: T1, androgen receptor (AR) (Mus musculus, UniProt P19091); assay: AR agonistic activity, PRE-tk-luciferase reporter in L929 cells; type: cell-based; conditions: at the maximum concentration tested (i.e., 10 nM)
T1 construct: in the L929 cells which express the AR but not the PR; endogenous in cells; host or cells: L929 cells
T1 sequence (P19091 1-899): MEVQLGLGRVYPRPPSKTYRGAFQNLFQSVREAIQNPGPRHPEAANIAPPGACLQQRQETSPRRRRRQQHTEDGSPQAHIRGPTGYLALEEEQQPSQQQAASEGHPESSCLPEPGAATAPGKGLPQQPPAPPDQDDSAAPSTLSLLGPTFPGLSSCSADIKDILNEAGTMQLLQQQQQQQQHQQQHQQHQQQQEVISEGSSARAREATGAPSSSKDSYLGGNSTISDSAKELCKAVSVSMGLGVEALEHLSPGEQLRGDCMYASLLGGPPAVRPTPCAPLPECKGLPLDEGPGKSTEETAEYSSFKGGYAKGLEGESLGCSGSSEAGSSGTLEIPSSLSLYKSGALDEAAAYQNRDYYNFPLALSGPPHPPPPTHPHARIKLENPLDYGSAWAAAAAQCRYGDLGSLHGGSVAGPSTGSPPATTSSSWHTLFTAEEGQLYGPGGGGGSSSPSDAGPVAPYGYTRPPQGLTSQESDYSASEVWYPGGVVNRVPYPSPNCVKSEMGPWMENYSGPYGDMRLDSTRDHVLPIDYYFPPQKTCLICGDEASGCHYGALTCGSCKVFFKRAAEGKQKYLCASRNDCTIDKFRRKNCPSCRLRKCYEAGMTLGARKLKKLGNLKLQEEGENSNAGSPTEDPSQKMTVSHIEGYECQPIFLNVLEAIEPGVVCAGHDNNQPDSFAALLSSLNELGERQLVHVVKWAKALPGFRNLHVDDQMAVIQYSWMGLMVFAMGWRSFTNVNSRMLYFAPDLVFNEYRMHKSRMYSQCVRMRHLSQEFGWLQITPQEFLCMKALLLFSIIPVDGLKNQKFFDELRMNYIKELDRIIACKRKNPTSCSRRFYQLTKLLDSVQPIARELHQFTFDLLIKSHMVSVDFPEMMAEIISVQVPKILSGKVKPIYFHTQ
Method: (§1) The androgen receptor (AR) agonistic and antagonistic activity of the compositions of the invention in the L929 cells which express the AR but not the PR was evaluated as described in Zhang et al., Steroids, 65(10-11): 637-643 (October-November 2000).
(§2) Cells were plated in 96-well plates at 25,000 cells/well in DMEM (BioWhittaker) with 10% (v/v) fetal bovine serum (FBS). The next day, cells were infected with the adenovirus PRE-tk-luciferase reporter construct (2×10^9 pfu/ml particles) and kept in DMEM containing 10% charcoal stripped FBS for an additional 24 hours. […] To test the anti-androgenic activity, cells were co-treated with 3 nM DHT. Luciferase activity was measured 24 hours following the treatment.

[2] = target: T1, androgen receptor (AR); assay: Anti-androgenic activity, PRE-tk-luciferase reporter in L929 cells co-treated with 3 nM DHT; type: cell-based; conditions: nine point dose response
Method: as §1, §2

Cn1c(C#N)ccc1-c1ccc2c(c1)C1(CCCCC1)C(=NC#N)N2 [5′-(5-Cyano-1-methyl-1H-pyrrol-2-yl)spiro[cyclohexane-1,3′-[3H]indol]-2′-ylidenecyanamide]
agonistic activity [1]: only marginal agonistic activity | antagonistic activity [2]: significant antagonistic activity
